Laboratory results: ChEMBL document CHEMBL4004838, “Design and synthesis of novel phenyl -1, 4-beta-carboline-hybrid molecules as potential anticancer agents” (Eur J Med Chem, 2017)

Tests used:
Assay type in all cases: functional
OVCAR-4 = experiment: Growth inhibition of human OVCAR4 cells assessed as cell growth at 10^-5 M incubated for 48 hrs by sulforhodamine B assay relative to control; conditions: OVCAR-4, 48 h, read-out: Activity
A498 = experiment: Growth inhibition of human A498 cells assessed as cell growth at 10^-5 M incubated for 48 hrs by sulforhodamine B assay relative to control; conditions: A498, 48 h, read-out: Activity
K562 = experiment: Growth inhibition of human K562 cells assessed as cell growth at 10^-5 M incubated for 48 hrs by sulforhodamine B assay relative to control; conditions: K562, 48 h, read-out: Activity
CCRF-CEM = experiment: Growth inhibition of human CCRF-CEM cells assessed as cell growth at 10^-5 M incubated for 48 hrs by sulforhodamine B assay relative to control; conditions: read-out: Activity
HCT-116 = experiment: Growth inhibition of human HCT116 cells assessed as cell growth at 10^-5 M incubated for 48 hrs by sulforhodamine B assay relative to control; conditions: HCT-116, 48 h, read-out: Activity
KM12 = experiment: Growth inhibition of human KM12 cells assessed as cell growth at 10^-5 M incubated for 48 hrs by sulforhodamine B assay relative to control; conditions: KM12, 48 h, read-out: Activity
HOP-62 = experiment: Growth inhibition of human HOP62 cells assessed as cell growth at 10^-5 M incubated for 48 hrs by sulforhodamine B assay relative to control; conditions: HOP-62, 48 h, read-out: Activity
SN12C = experiment: Growth inhibition of human SN12C cells assessed as cell growth at 10^-5 M incubated for 48 hrs by sulforhodamine B assay relative to control; conditions: read-out: Activity
UO-31 = experiment: Growth inhibition of human UO31 cells assessed as cell growth at 10^-5 M incubated for 48 hrs by sulforhodamine B assay relative to control; conditions: UO-31, 48 h, read-out: Activity
SK-MEL-2 = experiment: Growth inhibition of human SK-MEL-2 cells assessed as cell growth at 10^-5 M incubated for 48 hrs by sulforhodamine B assay relative to control; conditions: SK-MEL-2, 48 h, read-out: Activity
A549 = experiment: Growth inhibition of human A549/ATCC cells assessed as cell growth at 10^-5 M incubated for 48 hrs by sulforhodamine B assay relative to control; conditions: A549, 48 h, read-out: Activity
NCI-H522 = experiment: Growth inhibition of human NCI-H522 cells assessed as cell growth at 10^-5 M incubated for 48 hrs by sulforhodamine B assay relative to control; conditions: NCI-H522, 48 h, read-out: Activity
SF-539 = experiment: Growth inhibition of human SF539 cells assessed as cell growth at 10^-5 M incubated for 48 hrs by sulforhodamine B assay relative to control; conditions: SF-539, 48 h, read-out: Activity
SF-268 = experiment: Growth inhibition of human SF268 cells assessed as cell growth at 10^-5 M incubated for 48 hrs by sulforhodamine B assay relative to control; conditions: SF-268, 48 h, read-out: Activity
SR = experiment: Growth inhibition of human SR cells assessed as cell growth at 10^-5 M incubated for 48 hrs by sulforhodamine B assay relative to control; conditions: read-out: Activity
MCF7 = experiment: Growth inhibition of human MCF7 cells assessed as cell growth at 10^-5 M incubated for 48 hrs by sulforhodamine B assay relative to control; conditions: MCF7, 48 h, read-out: Activity
TK-10 = experiment: Growth inhibition of human TK10 cells assessed as cell growth at 10^-5 M incubated for 48 hrs by sulforhodamine B assay relative to control; conditions: TK-10, 48 h, read-out: Activity
786-0 = experiment: Growth inhibition of human 786-0 cells assessed as cell growth at 10^-5 M incubated for 48 hrs by sulforhodamine B assay relative to control; conditions: 786-0, 48 h, read-out: Activity
SK-MEL-28 = experiment: Growth inhibition of human SK-MEL-28 cells assessed as cell growth at 10^-5 M incubated for 48 hrs by sulforhodamine B assay relative to control; conditions: SK-MEL-28, 48 h, read-out: Activity
HT-29 = experiment: Growth inhibition of human HT-29 cells assessed as cell growth at 10^-5 M incubated for 48 hrs by sulforhodamine B assay relative to control; conditions: HT-29, 48 h, read-out: Activity
HCC 2998 = experiment: Growth inhibition of human HCC2998 cells assessed as cell growth at 10^-5 M incubated for 48 hrs by sulforhodamine B assay relative to control; conditions: HCC 2998, 48 h, read-out: Activity
MDA-MB-435 = experiment: Growth inhibition of human MDA-MB-435 cells assessed as cell growth at 10^-5 M incubated for 48 hrs by sulforhodamine B assay relative to control; conditions: MDA-MB-435, 48 h, read-out: Activity
SNB-75 = experiment: Growth inhibition of human SNB75 cells assessed as cell growth at 10^-5 M incubated for 48 hrs by sulforhodamine B assay relative to control; conditions: SNB-75, 48 h, read-out: Activity
HL-60(TB) = experiment: Growth inhibition of human HL-60(TB) cells assessed as cell growth at 10^-5 M incubated for 48 hrs by sulforhodamine B assay relative to control; conditions: HL-60, 48 h, read-out: Activity
NCI-H322M = experiment: Growth inhibition of human NCI-H322M cells assessed as cell growth at 10^-5 M incubated for 48 hrs by sulforhodamine B assay relative to control; conditions: read-out: Activity
BT-549 = experiment: Growth inhibition of human BT549 cells assessed as cell growth at 10^-5 M incubated for 48 hrs by sulforhodamine B assay relative to control; conditions: BT-549, 48 h, read-out: Activity
COLO 205 = experiment: Growth inhibition of human COLO205 cells assessed as cell growth at 10^-5 M incubated for 48 hrs by sulforhodamine B assay relative to control; conditions: COLO 205, 48 h, read-out: Activity
MDA-MB-231 = experiment: Growth inhibition of human MDA-MB-231 cells assessed as cell growth at 10^-5 M incubated for 48 hrs by sulforhodamine B assay relative to control; conditions: MDA-MB-231, 48 h, read-out: Activity
PC-3 = experiment: Growth inhibition of human PC3 cells assessed as cell growth at 10^-5 M incubated for 48 hrs by sulforhodamine B assay relative to control; conditions: PC-3, 48 h, read-out: Activity
SF-295 = experiment: Growth inhibition of human SF295 cells assessed as cell growth at 10^-5 M incubated for 48 hrs by sulforhodamine B assay relative to control; conditions: SF-295, 48 h, read-out: Activity
Hs-578T = experiment: Growth inhibition of human Hs 578T cells assessed as cell growth at 10^-5 M incubated for 48 hrs by sulforhodamine B assay relative to control; conditions: read-out: Activity
LOX IMVI = experiment: Growth inhibition of human LOXIMVI cells assessed as cell growth at 10^-5 M incubated for 48 hrs by sulforhodamine B assay relative to control; conditions: read-out: Activity
M14 = experiment: Growth inhibition of human M14 cells assessed as cell growth at 10^-5 M incubated for 48 hrs by sulforhodamine B assay relative to control; conditions: M14, 48 h, read-out: Activity

`Cc1ccc(S(=O)(=O)N2CCc3c([nH]c4ccccc34)C2c2ccc(C=O)cc2)cc1` (stereo not drawn) was tested, and the growth at 10 µM (OVCAR-4) was 85.8%, the growth at 10 µM (A498) was 84.6% and the growth at 10 µM (K562) was 106%. It also gave a growth at 10 µM (CCRF-CEM) of 106%, a growth at 10 µM (HCT-116) of 88.3% and a growth at 10 µM (KM12) of 86.8%. It also gave a growth at 10 µM (HOP-62) of 94.3%, a growth at 10 µM (SN12C) of 87.7% and a growth at 10 µM (UO-31) of 66.7%. The growth at 10 µM (SK-MEL-2) was 81.6%, the growth at 10 µM (A549) was 92.8% and the growth at 10 µM (NCI-H522) was 60.3%. It also gave a growth at 10 µM (SF-539) of 90.2%, a growth at 10 µM (SF-268) of 91.3% and a growth at 10 µM (SR) of 97.2%. For the same molecule, the growth at 10 µM (MCF7) was 92.4%, the growth at 10 µM (TK-10) was 98% and the growth at 10 µM (786-0) was 99.6%. For the same molecule, the growth at 10 µM (SK-MEL-28) was 86%, the growth at 10 µM (HT-29) was 87.2% and the growth at 10 µM (HCC 2998) was 102%. It also gave a growth at 10 µM (MDA-MB-435) of 93.4%, a growth at 10 µM (SNB-75) of 74% and a growth at 10 µM (HL-60(TB)) of 105%. The growth at 10 µM (NCI-H322M) was 87.7%, the growth at 10 µM (BT-549) was 77.1% and the growth at 10 µM (COLO 205) was 92.1%. The growth at 10 µM (MDA-MB-231) was 73.4%, the growth at 10 µM (PC-3) was 84.2% and the growth at 10 µM (SF-295) was 91.9%. It also gave a growth at 10 µM (Hs-578T) of 89.2%, a growth at 10 µM (LOX IMVI) of 85.5% and a growth at 10 µM (M14) of 85.8%.
